Measurements: patent US9809562B2, “NAT10 modulators for treating or preventing laminopathies, aging and cancer” (CAMBRIDGE ENTERPRISE LIMITED, priority 2014, dated 2017)
Structures can show the parent of a compound that is named as a salt.

Legend:
siLMNA cells = assay: Micrococcal nuclease digestion sensitivity assay and nuclear area (chromatin compaction); type: cell-based, human
Protocol: CellProfiler software was used to quantify nuclear circularity and nuclear area from DAPI staining pictures, using the “object size shape” measurement. The AreaShape measurement allowed the calculation of the Form Factor index ([…]) corresponding to circularity (a Form Factor of 1 reflecting a perfect circle), as well as the calculation of nuclear Area.
1×10^6 cells were trypsinized, harvested, and washed once with 1 ml of 1×RSB buffer (10 mM Tris, pH 7.6, 15 mM NaCl, and 1.5 mM MgCl2). After centrifugation ([…]), the cell pellet was resuspended in 1 ml of 1×RSB buffer with 1% Triton-X 100 and homogenized by five strokes with a loose-fitting glass pestle to release nuclei. Nuclei were collected by centrifugation (13,000×g) and washed twice with 1 ml of buffer A (15 mM Tris, pH 7.5, 15 mM NaCl, 60 mM KCl, 0.34 M sucrose, 0.5 mM spermidine, 0.15 mM spermine, 0.25 mM PMSF, and 0.1% β-mercaptoethanol). Nuclei were resuspended in Buffer A and aliquoted into 100 μl aliquots. […] DNA was purified using the Qiagen PCR purification kit and 1500 ng of DNA was analysed on a 1.5% agarose gel. Digestion profiles were analysed using ImageJ and values were adjusted relative to the global intensity of each lane to compensate for DNA loading variations.

Normal fibroblasts = assay: Microarray gene expression, normal fibroblasts; type: cell-based, human; settings: 1 μM, 12 population doublings
Protocol: Normal fibroblasts or HGPS fibroblasts were kept in culture for 12 population doublings with chronic treatment of 1 μM Compound 2 (top panels of FIG. 29) or transfected with siRNA against NAT10 for 3 days (bottom panels of FIG. 29). RNA was extracted and global gene expression was analysed by microarray. Volcano plots show a very high specificity of Compound 2 towards gene expression regulation of HGPS cells, with about 1000 genes affected more than 2 fold, whereas only 24 genes were affected in normal fibroblasts.

NAT10 = molecular target: T1, NAT10 (Homo sapiens, UniProt Q9H0A0); assay: Clickable small molecule pull-down from live cells, western blotting; type: binding; settings: pre-incubated in live U2OS cells, biotin linker, streptavidin beads
T1 construct: endogenous in cells; host or cells: U2OS
T1 sequence (Q9H0A0 whole entry): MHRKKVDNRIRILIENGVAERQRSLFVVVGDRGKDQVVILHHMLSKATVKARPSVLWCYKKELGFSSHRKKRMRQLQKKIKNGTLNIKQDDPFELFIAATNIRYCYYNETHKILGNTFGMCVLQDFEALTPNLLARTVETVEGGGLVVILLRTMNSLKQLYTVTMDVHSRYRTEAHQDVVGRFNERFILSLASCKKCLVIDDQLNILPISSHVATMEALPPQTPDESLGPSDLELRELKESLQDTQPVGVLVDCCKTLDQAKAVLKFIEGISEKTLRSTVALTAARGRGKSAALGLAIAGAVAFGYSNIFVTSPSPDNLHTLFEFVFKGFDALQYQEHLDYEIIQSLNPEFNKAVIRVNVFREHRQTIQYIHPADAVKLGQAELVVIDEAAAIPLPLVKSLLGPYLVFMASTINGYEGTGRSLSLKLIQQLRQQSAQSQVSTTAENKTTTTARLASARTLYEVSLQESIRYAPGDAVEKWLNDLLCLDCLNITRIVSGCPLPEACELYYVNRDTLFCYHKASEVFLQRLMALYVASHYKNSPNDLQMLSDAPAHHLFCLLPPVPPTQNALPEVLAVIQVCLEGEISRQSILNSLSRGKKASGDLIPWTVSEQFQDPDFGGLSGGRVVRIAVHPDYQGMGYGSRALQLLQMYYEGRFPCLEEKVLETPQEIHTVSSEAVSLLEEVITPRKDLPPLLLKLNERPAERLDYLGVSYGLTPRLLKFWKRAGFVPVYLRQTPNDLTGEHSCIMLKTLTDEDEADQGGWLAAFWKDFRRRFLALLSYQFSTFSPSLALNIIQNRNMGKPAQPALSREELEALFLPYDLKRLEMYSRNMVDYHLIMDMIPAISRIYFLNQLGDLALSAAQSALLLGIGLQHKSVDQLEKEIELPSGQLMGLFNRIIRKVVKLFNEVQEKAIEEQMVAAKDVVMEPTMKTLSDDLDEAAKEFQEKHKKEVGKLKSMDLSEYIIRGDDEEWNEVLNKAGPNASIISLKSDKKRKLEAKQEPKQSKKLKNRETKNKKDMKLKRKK
Protocol: Biotinylated Compound 3 and PEG4 biotinylated Compound A were generated in situ from Compounds 2 and 3, pre-incubated in live cells for 2 h prior to adding commercially available PEG4 carboxamide-6-azidohexanyl biotin and click reagents in cell extracts (used in click-pull-down and western blotting validation).
Click reaction reagents were added to the cell lysates as follows: 10 μM biotin azide (PEG4 carboxamide-6-Azidohexanyl Biotin, Life Sciences), 10 mM sodium ascorbate (Sigma-Aldrich), 2 mM CuSO4 (Life Sciences). Click reactions were incubated in the dark for 1 hour at 4° C. with rotation. Streptavidin beads were then incubated for 1 hour and samples were eluted and loaded on a gel as described above, before immunoblotting.

HGPS cells [1] = assay: Chromatin, nucleolar and SUN1 organization in HGPS cells (IF); type: cell-based, human; settings: Remodelin 1 μM
Protocol: The following KAT and KDAC inhibitors were used in the nuclear shape rescue screen, incubating cells with the molecules for 16 hours: trichostatin A (1 μM), sodium butyrate (5 mM), tubacin (10 μM), SAHA (5 μM), curcumin (10 μM), garcinol (50 μM), anacardic acid (1 μM), MB-3 (5 μM), 4-(4-chlorophenyl)-2-(2-cyclopentylidenehydrazinyl)thiazole (Compound 2) (50 μM), 4-(4-chlorophenyl)-2-(2-cyclopentylidene-1-(prop-2-yn-1-yl)hydrazinyl)thiazole (Compound 3) (50 μM) and cyclopentylidene-[4-(4-cyanophenyl)thiazol-2-yl)hydrazine (Compound 1) (Remodelin) (10 to 50 μM). For HGPS cellular fitness assays, Remodelin was incubated at 1 μM for 1 to 10 days, renewing the medium every 3 days. For long-term senescence assay, cells were kept and passaged in medium containing 1 μM Remodelin or DMSO only for 12 population doublings. Senescence was assessed after 8 days of Remodelin treatment when cells were at Population Doubling 12, and then after several weeks of Remodelin treatment, when cells reached Population Doubling 24 using the Senescence β-Galactosidase Staining Kit #9860 from Cell Signaling. Nocodazole, colchicine and latrunculin A (Sigma-Aldrich) were used at 200 ng/ml, 1 μg/ml and 1 μM respectively. Aphidicolin (Sigma-Aldrich) was used at 5 μg/ml for 16 h. Farnesyltransferase inhibitor FTI-277 was purchased from Tocris Bioscience and used at 5 μM. […]

HGPS cells [2] = assay: Proliferation assay of HGPS cells (IncuCyte); type: cell-based, human; settings: Remodelin 1 μM
Protocol: HGPS cells were plated at the same number in 24 well dishes. Next day, Remodelin (1 μM) or small molecule Compound 2 (1 to 10 μM), were added to the wells and plates were transferred into an IncuCyte microscope (Essen BioScience). Phase contrast pictures were acquired every 2 hours over several days. Percentage of cell confluence was calculated by the Cell Player integrated software (Essen BioScience) and analysed with GraphPad Prism® software.

HGPS AG11498 cells = assay: Senescence-associated β-galactosidase in HGPS cells; type: cell-based, human
Protocol: The following KAT and KDAC inhibitors were used in the nuclear shape rescue screen, incubating cells with the molecules for 16 hours: trichostatin A (1 μM), sodium butyrate (5 mM), tubacin (10 μM), SAHA (5 μM), curcumin (10 μM), garcinol (50 μM), anacardic acid (1 μM), MB-3 (5 μM), 4-(4-chlorophenyl)-2-(2-cyclopentylidenehydrazinyl)thiazole (Compound 2) (50 μM), 4-(4-chlorophenyl)-2-(2-cyclopentylidene-1-(prop-2-yn-1-yl)hydrazinyl)thiazole (Compound 3) (50 μM) and cyclopentylidene-[4-(4-cyanophenyl)thiazol-2-yl)hydrazine (Compound 1) (Remodelin) (10 to 50 μM). For HGPS cellular fitness assays, Remodelin was incubated at 1 μM for 1 to 10 days, renewing the medium every 3 days. For long-term senescence assay, cells were kept and passaged in medium containing 1 μM Remodelin or DMSO only for 12 population doublings. Senescence was assessed after 8 days of Remodelin treatment when cells were at Population Doubling 12, and then after several weeks of Remodelin treatment, when cells reached Population Doubling 24 using the Senescence β-Galactosidase Staining Kit #9860 from Cell Signaling. Nocodazole, colchicine and latrunculin A (Sigma-Aldrich) were used at 200 ng/ml, 1 μg/ml and 1 μM respectively. Aphidicolin (Sigma-Aldrich) was used at 5 μg/ml for 16 h. Farnesyltransferase inhibitor FTI-277 was purchased from Tocris Bioscience and used at 5 μM. ATMi (KU55933) and ATRi (ATR-45) were obtained from Tocris Bioscience and from the Ohio State University respectively and used at 10 μM and 500 nM. Pifithrin alpha (Sigma-Aldrich) was used at 10 μM.

## Clc1ccc(-c2csc(NN=C3CCCC3)n2)cc1 [Compound 2, 4-(4-Chlorophenyl)-2-(2-cyclopentylidenehydrazinyl)thiazole Hydrochloride Salt]
siLMNA cells
  global chromatin compaction (MNase sensitivity): decreased MNase sensitivity
  nuclear area: reduced nuclear area
Normal fibroblasts
  number of genes affected: 24 genes

## C#CCN(N=C1CCCC1)c1nc(-c2ccc(Cl)cc2)cs1 [Compound 3, 4-(4-Chlorophenyl)-2-(2-cyclopentylidene-1-(prop-2-yn-1-yl)hydrazinyl)thiazole]
NAT10
  retrieval of NAT10 in click pull-down: specifically retrieved NAT10

## N#Cc1ccc(-c2csc(NN=C3CCCC3)n2)cc1 [Compound 1, 4-(4-Cyanophenyl)-2-(2-cyclopentylidenehydrazinyl)thiazole]
HGPS cells [1]
  SUN1 accumulation at the nuclear envelope: decreased SUN1 accumulation at the nuclear envelope
  chromatin and nucleolar organization (H3K9me3 and NAT10 staining): improved chromatin and nucleolar organization
HGPS cells [2]
  cell proliferation of HGPS cells: enhanced cell proliferation capacity
HGPS AG11498 cells; 1 μM Remodelin, several weeks, 12 cell divisions (PDL 24)
  long-term senescence of HGPS cells: prevented HGPS cell senescence even after several weeks of treatment
HGPS AG11498 cells; HGPS AG11498, Remodelin 1 μM, Pifithrin alpha 10 μM
  senescence of HGPS cells (β-galactosidase positive cells): decreased senescence
